Assay: xn = mol fraction of the nth substance listed
Details: 101 kPa, Liquid

CCCCn1cc[n+](C)c1.N#C[S-] [1-butyl-3-methylimidazolium thiocyanate] + CCCCCCCO
Details | mass density [kg/m3] | viscosity [mPa·s]
298.15 K, x1 = 0.0806 | 845.64 | 7.319
298.15 K, x1 = 0.14 | 864.24 | 8.422
298.15 K, x1 = 0.2203 | 888.14 | 10.16
298.15 K, x1 = 0.3006 | 910.91 | 12.31
298.15 K, x1 = 0.3997 | 937.73 | 15.5
298.15 K, x1 = 0.4903 | 960.98 | 18.92
298.15 K, x1 = 0.5703 | 980.45 | 22.22
298.15 K, x1 = 0.6949 | 1008.83 | 28.65
298.15 K, x1 = 0.7981 | 1031.04 | 34.6
298.15 K, x1 = 0.8852 | 1048.62 | 39.81
298.15 K, x1 = 0.9793 | 1066.13 | 47.21
298.15 K, x1 = 1 | 1069.79 | 51.74
308.15 K, x1 = 0.0806 | 838.75 | 5.395
308.15 K, x1 = 0.14 | 857.45 | 6.213
308.15 K, x1 = 0.2203 | 881.49 | 7.479
308.15 K, x1 = 0.3006 | 904.36 | 9.061
308.15 K, x1 = 0.3997 | 931.34 | 11.31
308.15 K, x1 = 0.4903 | 954.7 | 13.59
308.15 K, x1 = 0.5703 | 974.26 | 15.73
308.15 K, x1 = 0.6949 | 1002.79 | 19.86
308.15 K, x1 = 0.7981 | 1025.06 | 23.67
308.15 K, x1 = 0.8852 | 1042.69 | 26.77
308.15 K, x1 = 0.9793 | 1060.22 | 31.2
308.15 K, x1 = 1 | 1063.89 | 34.87
318.15 K, x1 = 0.0806 | 831.82 | 4.085
318.15 K, x1 = 0.14 | 850.63 | 4.725
318.15 K, x1 = 0.2203 | 874.82 | 5.654
318.15 K, x1 = 0.3006 | 897.84 | 6.884
318.15 K, x1 = 0.3997 | 924.97 | 8.55
318.15 K, x1 = 0.4903 | 948.46 | 10.19
318.15 K, x1 = 0.5703 | 968.12 | 11.67
318.15 K, x1 = 0.6949 | 996.76 | 14.49
318.15 K, x1 = 0.7981 | 1019.11 | 17.02
318.15 K, x1 = 0.8852 | 1036.79 | 19.03
318.15 K, x1 = 0.9793 | 1054.36 | 21.9
318.15 K, x1 = 1 | 1058.02 | 24.19
328.15 K, x1 = 0.0806 | 824.81 | 3.166
328.15 K, x1 = 0.14 | 843.79 | 3.685
328.15 K, x1 = 0.2203 | 868.14 | 4.369
328.15 K, x1 = 0.3006 | 891.32 | 5.306
328.15 K, x1 = 0.3997 | 918.62 | 6.634
328.15 K, x1 = 0.4903 | 942.26 | 7.875
328.15 K, x1 = 0.5703 | 962.02 | 8.926
328.15 K, x1 = 0.6949 | 990.79 | 11.02
328.15 K, x1 = 0.7981 | 1013.22 | 12.79
328.15 K, x1 = 0.8852 | 1030.94 | 14.2
328.15 K, x1 = 0.9793 | 1048.56 | 16.16
328.15 K, x1 = 1 | 1052.19 | 16.7
338.15 K, x1 = 0.0806 | 817.69 | 2.508
338.15 K, x1 = 0.14 | 836.85 | 2.935
338.15 K, x1 = 0.2203 | 861.43 | 3.47
338.15 K, x1 = 0.3006 | 884.79 | 4.186
338.15 K, x1 = 0.3997 | 912.28 | 5.262
338.15 K, x1 = 0.4903 | 936.05 | 6.24
338.15 K, x1 = 0.5703 | 955.92 | 7.057
338.15 K, x1 = 0.6949 | 984.85 | 8.62
338.15 K, x1 = 0.7981 | 1007.36 | 9.943
338.15 K, x1 = 0.8852 | 1025.11 | 10.97
338.15 K, x1 = 0.9793 | 1042.8 | 12.38
338.15 K, x1 = 1 | 1046.43 | 12.73
348.15 K, x1 = 0.0806 | 810.46 | 2.022
348.15 K, x1 = 0.14 | 829.85 | 2.383
348.15 K, x1 = 0.2203 | 854.69 | 2.837
348.15 K, x1 = 0.3006 | 878.24 | 3.403
348.15 K, x1 = 0.3997 | 905.95 | 4.222
348.15 K, x1 = 0.4903 | 929.89 | 5.029
348.15 K, x1 = 0.5703 | 949.88 | 5.663
348.15 K, x1 = 0.6949 | 978.95 | 6.884
348.15 K, x1 = 0.7981 | 1001.53 | 7.93
348.15 K, x1 = 0.8852 | 1019.34 | 8.707
348.15 K, x1 = 0.9793 | 1037.06 | 9.802
348.15 K, x1 = 1 | 1040.7 | 9.98

Reference: the NIST ThermoML archive (doi:10.1021/je901043q)
